From PMC12767106, “In Situ Assembly of Transformable Monopeptide on Activated Neutrophils Attenuates NETs‐Induced Hepatocellular Carcinoma Metastasis by Disrupting NE Nuclear Translocation” (Advanced Science, 2025) come the findings set out here.

The conditions of data set [1]: mouse, in vivo.
The subject of data set [2] is Hepa1-6 cells. Put plainly: Transwell migration and Matrigel invasion assay. The format is cell-based, mouse. How it is done:
(§1) Cell migration and invasion assay […]
Cell migration was monitored during the overnight culture of the cells. Hepa1-6/luc cells (5×10^5cells/well) were placed in the upper chamber of an 8µm transwell system and incubated in serum-free DMEM, while various treated media with 20% FBS were added to the lower chamber of 24-well plates. After incubation for 48 h, the transmembrane cells were washed, fixed with 4% paraformaldehyde, stained with crystal violet, and observed under a microscope (Axiovert 200, Zeiss, Germany). All the experiments were performed thrice. The Transwell invasion assay was performed using a similar procedure. Hepa1-6/luc cells (1×10^6cells/well) were seeded in the upper chamber of an 8µm transwell system coated with Matrigel (356231, Corning, New York, USA) and incubated in serum-free DMEM. The remaining operations were performed according to the steps of the migration assay. All the experiments were performed thrice.
(§2) Matrigel tube formation assay
(§3) Murine C166 endothelial cells (3×10^4cells/well) were placed on 96-well plates coated with Matrigel (356231, Corning, New York, USA) and incubated with various treatments. […]
In vitro permeability assays and trans-endothelial invasion assays […]

Data set [3] has as its system Hepa1-6/luc murine HCC cells. In words: CCK-8 cytotoxicity. The format is cell-based, mouse. The following applies: CCK-8, 24 h, different dosages. How it is done:
10 minutes to remove unbound particles, and the supernatant was collected. […]
In vitro cytotoxicity assay
The CCK-8 assay was used to assess the cell viability of Hepa1-6/luc, resting neutrophils, and activated neutrophils. Following the seeding of 1*10^4 cells per well on a 96-well plate, the cells were subjected to different dosages of FTP-NPs and NFTP-NPs (medium: DMSO = 99:1 v/v). After 24 hours, the cells were incubated for two hours with 10 µL of CCK-8 solution. Finally, a microplate reader (Tecan Infinite M200, Switzerland) was used to measure cell viability based on the absorbance values.
Targeting the capability of NEBP
To evaluate the targeting capability of NE-binding peptide (NEBP), the harvested resting neutrophils and […]

Data set [4] deals with Hepa1-6/luc liver and lung metastasis. Put plainly: Liver and lung metastasis model. Format: in vivo, mouse. To be noted: Hepa1-6/luc cells via spleen or tail vein, 300 µM in 200 µL i.v. every two days, 16 days, n = 5. The text has this:
Submitted to Advanced Science
effector T cells (CD45+CD3+CD8+)/(CD45+CD3+CD4+), tumor cells were stained with anti-CD45-FITC
(Biolegend), anti-CD3ε-PerCP-Cy5.5 (Biolegend), anti-CD4-APC (Biolegend), and anti-CD8a-PE (Biolegend)
antibodies according to the standard protocol. For evaluation of NK cells (CD45+CD3-NK1.1+), tumor cells
were stained with anti-CD45-FITC (Biolegend), anti-CD3-PE (Biolegend) and anti-CD49b-APC (Biolegend)
antibodies and examined using flow cytometry. For MDSCs (CD45+CD11b+Gr-1+) analysis, tumor cells were
stained with anti-CD45-FITC, anti-CD11b-BrilliantViolet-510 (Biolegend), anti -F4/80-PE (Biolegend), and
anti-Gr-1-APC (Biolegend) antibodies for flow cytometry examination (BD FACS Canto SORP, USA). The
software FlowJo V10.6.2 was used for data analysis. To further explore the immunomodulatory effects of FTP-
NPs. Tumor tissues were harvested for immune profiling. Plasma cytokine levels, including IL-6, IL-10, and
TNF-α, were measured using commercially available ELISA kits to assess the immune activation induced by
Experimental liver and lung metastasis model
Six-week-old male C57BL/6J mice (20–25 g) were used to establish liver and lung metastasis models. Hepa1-
6/luc cells (1 × 10^6 cells) were injected into the spleen or tail vein of the mice to induce liver or lung
metastasis, respectively. For the liver metastasis model, Hepa1-6/luc cells were injected into the spleen, allowing
tumor cells to circulate and establish metastases in the liver. For the lung metastasis model, Hepa1-6/luc cells
were injected via the tail vein, leading to the formation of metastases in the lungs. Following cell implantation, […]
euthanized, and metastases were assessed macroscopically. […]
injecting D-Luciferin (150 mg/kg) intraperitoneally, and tumor burden was quantified using the IVIS Spectrum […]
conducted, and metastatic lesions were assessed under an inverted microscope (Axiovert 200, Zeiss, Germany). […]
300 μM per injection) for mice. […] (b) Fluorescence quantized chart […]
experiments. Statistical significance was calculated by one-way ANOVA, *p < 0.050.(c, d) Photographs of lung […]

Data set [5] concerns Hepa1-6 cells. Put plainly: Trans-endothelial invasion assay. The format is cell-based, mouse. To be noted: 48 h, versus Control group. How it is done: as §1, §2, §3
In vitro permeability assays and trans-endothelial invasion assays
For in vitro permeability assays, C166 cells were treated with Resting neutrophils, Control, NFTP-NPs, FTP-NPs, and NEi groups for 48 h to form an endothelial monolayer, and then Evans Blue (PHYGENE, China) was added to the upper layer of the transwell filters (0.4 μm, Corning). After 30 min, the medium in the lower layer of the chamber was collected to measure the absorbance at 620 nm (Tecan Infinite M200, Switzerland).
For trans-endothelial invasion assays, […] Hepa1-6/luc cells were seeded into transwell filters (8 μm, Corning) with endothelial cell monolayers pretreated with resting neutrophils, Control, NFTP-NPs, FTP-NPs, and NEi groups. After incubation for 48 h, the transmembrane cells were washed, fixed with 4% paraformaldehyde, stained with crystal violet, and observed under a microscope (Axiovert 200, Zeiss, Germany).
All the experiments were performed thrice. […]

For the substance PpIX-GFFVLK-EAIPMSIPPEVK [FTP-NPs], in data set [1], the “toxicity in mice (liver function, platelets, creatinine, blood cell count)” value is reported as “nontoxic”. The “number of invasive cells” value in data set [2] (Matrigel-coated transwell, versus Control and NFTP-NPs groups) was “significantly lower”. Moreover, the “number of migrating cells” value in data set [2] (transwell, 48 h, versus other control groups) is recorded as “significantly reduced”. The survival rate entry in data set [3] is “over 95%”. For the same substance, the “liver and lung metastasis (bioluminescent signals, number of metastatic foci)” value in data set [4] was “weakened considerably and significantly lower”. Further, the “number of Hepa1-6 cells passing through the endothelial monolayer” value in data set [5] was “significantly lower”.

On to “PpIX-GGGAAK-EAIPMSIPPEVK [NFTP-NPs, nanoparticles of the non-fibrillar transformable control peptide NFTP]”, for which the “liver and lung metastasis (bioluminescent signals, number of metastatic foci)” value in data set [4] was “obvious metastases”.
